These results are taken from ChEMBL document CHEMBL5325506, “Discovery of neo-Clerodane Diterpenoids from Ajuga campylantha as Neuroprotective Agents against Ferroptosis and Neuroinflammation” (J Nat Prod, 2023).

The source made the active and inactive calls. No cut-off for these calls is given here.

One may read the IC50 as the concentration that gives 50% inhibition. What is called EC50 is the concentration at which the effect is half-maximal.

The subject of data set [1] is HT-22. Nature of the data set: Cytotoxicity against mouse HT-22 cells assessed as reduction in cell viability at 30 uM incubated for 24 hrs by MTT assay. To be noted: ht-22, 24 h. The format is toxicity, cell-based.
In data set [2] the test system is HT-22. In words: Inhibition of RSL3-induced ferroptosis in mouse HT-22 cells assessed as increase in cell viability at 30 uM incubated for 24 hrs by MTT assay. The class given is functional, cell-based.
Data set [3] deals with BV-2. Nature of the data set: Anti-inflammatory activity in mouse BV-2 cells assessed as inhibition of LPS-induced NO accumulation measured after 24 hrs by Griess reagent-based analysis. The class given is functional, cell-based. To be noted: BV-2, 24 h.
For data set [4], the system named is BV-2. In words: Cytotoxicity against mouse BV-2 cells assessed as reduction in cell viability at 10 to 30 uM incubated for 24 hrs by MTT assay. The format is toxicity, cell-based. The following applies: bv-2, 24 h, dose 10-30 µM. In general terms: Tetrazolium dyes change colour on reduction, which living cells bring about.
Data set [5] can be described thus: Metal chelating activity assessed as Fe2+-compound complex formation at 50 mM in presence of FeSO4 by UV-Visible spectrophotometry.
For data set [6], the system named is HT-22. Nature of the data set: Reversal of RSL3-induced morphological changes in mouse HT-22 cells incubated for 24 hrs. The format is functional, cell-based. The following applies: dose 3-30 µM.
The test system of data set [7] is HT-22. Nature of the data set: Inhibition of RSL3-induced ferroptosis in mouse HT-22 cells assessed as increase in cell viability incubated for 24 hrs by MTT assay. To be noted: HT-22, 24 h. The class given is functional, cell-based.
Data set [8] concerns HT-22. In words: Inhibition of RSL3-induced ferroptosis in mouse HT-22 cells assessed as reduction in lipid accumulation incubated for 4 hrs by BODIPY-C11 based flow cytometric analysis. The format is functional, cell-based. The following applies: dose 3-30 µM. For orientation: A flow cytometer gives signals particle by particle.
The subject of data set [9] is HT-22. In words: Inhibition of RSL3-induced ferroptosis in mouse HT-22 cells assessed as reduction in cytosolic ROS accumulation incubated for 4 hrs by carboxy-H2DCFDA based flow cytometric analysis. The format is functional, cell-based. To be noted: dose 3-30 µM.
The test system of data set [10] is HT-22. Nature of the data set: Inhibition of RSL3-induced ferroptosis in mouse HT-22 cells assessed as downregulation of PTGS2 mRNA expression at 10 to 30 uM incubated for 4 hrs by qRT-PCR analysis. The class given is functional, cell-based. The following applies: dose 10-30 µM.
Data set [11] relates to HT-22. Nature of the data set: Inhibition of glutamate-induced ferroptosis in mouse HT-22 cells at 30 uM incubated for 24 hrs. The class given is functional, cell-based.
Data set [12] concerns HT-22. Nature of the data set: Inhibition of STS-induced apoptosis in mouse HT-22 cells at 30 uM incubated for 24 hrs. The format is functional, cell-based.
Data set [13] concerns HT-22. In words: Inhibition of H2O2-induced necrosis in mouse HT-22 cells at 30 uM incubated for 24 hrs. The format is functional, cell-based.
The subject of data set [14] is HT-22. In words: Inhibition of TNFalpha/AZD5582/Z-VAD-fmk induced necroptosis in mouse HT-22 cells at 30 uM incubated for 24 hrs. The format is functional, cell-based.
The nature of data set [15]: Antioxidant activity assessed as DPPH radical scavenging activity at 100 uM measured after 30 mins by microplate spectrophotometer analysis. The class given is functional. (Loss of DPPH colour is used to gauge radical scavenging.)

Take `C=C1CCC[C@@H]2[C@@](C)(CCC3=CC(O)OC3=O)[C@H](C)C[C@H](O)[C@@]12C` (stereo partly specified): the Activity entry in the data set with HT-22 [1] is listed as “Non-Toxic”. Take `C[C@@H]1C[C@@H]2OC(=O)[C@@H]3CCC[C@H]([C@@]1(C)CCc1ccoc1)[C@@]23C`: the Activity entry in the data set on HT-22 [1] was “Non-Toxic”. On to `C=C1CCC[C@@H]2[C@@](C)(CCC3=C[C@@H](OCC)OC3=O)[C@H](C)C[C@H](O)[C@@]12C`, for which, in the data set with HT-22 [1], the Activity result is listed as “Non-Toxic”. For the molecule `C[C@@H]1C[C@H](O)[C@]2(C)[C@H](CCC[C@@]2(O)CO)[C@@]1(C)CCc1ccoc1`, in the data set on HT-22 [1], the Activity entry is given as “Non-Toxic”. For the same molecule, the inhibition entry in the data set on HT-22 [2] was “Active”. Consider `C=C1CCC[C@H]2[C@@]1(C)C(=O)C[C@@H](C)[C@]2(C)CCC1=CC(OC)OC1=O` (stereo partly specified), for which the Activity result in the data set on HT-22 [1] and with BV-2 [4] was “Non-Toxic” throughout. In the data set with BV-2 [3], the IC50 amounted to 9.7 µM. For `Oc1ccc(/C=C/c2cc(O)cc(O)c2)cc1` [RESVERATROL], in the data set with BV-2 [3], the IC50 is 32 µM. As for `COC1C=C(CC[C@@]2(C)[C@H](C)C[C@H](O)[C@]3(COC(C)=O)[C@@H]2CCC[C@]32CO2)C(=O)O1` (stereo partly specified), the Activity result in the data set with HT-22 [1] is listed as “Non-Toxic”. In the case of `C=C1CCC[C@@H]2[C@@](C)(CCC3=CC(OC)OC3=O)[C@H](C)C[C@H](O)[C@@]12C` (stereo partly specified), the Activity result in the data set on HT-22 [1] is “Non-Toxic”. Further, the IC50 in the data set with BV-2 [3] worked out at 41 µM. For the molecule `CCOC(=O)CC(=O)OC[C@@]1(O)CCC[C@@H]2[C@@](C)(CCc3ccoc3)[C@H](C)C[C@H](O)[C@]21C`, in the data set with HT-22 [1], the Activity entry was “Non-Toxic”. In the case of `C=C1CCC[C@@H]2[C@@](C)(CCc3ccoc3)[C@H](C)C[C@H](O)[C@@]12C`, the Activity entry in the data set with HT-22 [1] was “Non-Toxic”. In addition, in the data set on HT-22 [2], the inhibition result was “Active”.

With `C=C1CCC[C@@H]2[C@@](C)(CCC3=C[C@H](OCC)O[C@@H]3OCC)[C@H](C)C[C@H](O)[C@@]12C`, the Activity result in the data set with HT-22 [1] was “Non-Toxic”.

Consider `C=C1CCC[C@@H]2[C@@](C)(CCC3=CC(=O)OC3C)[C@H](C)C[C@H](O)[C@@]12C` (stereo partly specified), for which the Activity entry in the data set with HT-22 [1] is listed as “Non-Toxic”. Same read-out and setting: the result for `CCO[C@@H]1C[C@@H]2C(C=O)=C(C)C[C@@H]2O1` reads “Non-Toxic”.

`C[C@@H]1C[C@H](O)[C@]2(C)[C@H](CCC[C@]2(O)CO)[C@@]1(C)CCc1ccoc1`: the Activity result in the data set on HT-22 [1] is “Non-Toxic”. Also, the inhibition entry in the data set on HT-22 [2] was “Active”. For `C=C1CCC[C@@H]2[C@@](C)(CC[C@]3(O)[C@@H](OCC)O[C@H](OCC)[C@H]3O)[C@H](C)C[C@H](O)[C@@]12C`, the Activity entry in the data set on HT-22 [1] is given as “Non-Toxic”. For the molecule `C=C1CCC[C@@H]2[C@@](C)(CC/C(=C/CO)CO)[C@H](C)C[C@H](O)[C@@]12C`, the Activity result in the data set on HT-22 [1] is “Non-Toxic”. Take `C[C@@H]1C[C@H](O)[C@]2(C)[C@H](CCC[C@]23CO[C@@](C)(O)O3)[C@@]1(C)CCc1ccoc1`: the result in data set [5] and in data set [15] was inactive. For the same molecule, the results for the Activity entry in the data set on HT-22 [1] and in the data set on HT-22 [6] were “Non-Toxic” and “Dose-Dependent Effect”, respectively. The EC50 with HT-22 [7] amounted to 10 µM. Further, the inhibition entry in the data set with HT-22 [8] and with HT-22 [9] was “Dose-Dependent Effect” in each case. Besides, the inhibition result in the data set with HT-22 [10] and in the data set with HT-22 [11] was “Active” each time. Moreover, the inhibition entry with HT-22 [12], in the data set on HT-22 [13] and with HT-22 [14] was “inactive” each time. Turning to `C=C1CCC[C@@H]2[C@@](C)(CCC3=CC(=O)OC3)[C@H](C)C[C@H](O)[C@@]12C`, in the data set with HT-22 [1], the Activity result is listed as “Non-Toxic”.

For the molecule `CC(=O)N(O)CCCCCNC(=O)CCC(=O)N(O)CCCCCNC(=O)CCC(=O)N(O)CCCCCN`, in data set [5], the result was Active. With `C=C1CCC[C@@H]2[C@@](C)(CCC3=C[C@@H](OCC)O[C@@H]3OCC)[C@H](C)C[C@H](O)[C@@]12C`, the Activity result with HT-22 [1] is “Non-Toxic”. `C=C1CCC[C@@H]2[C@@](C)(CCC3=C[C@H](OCC)OC3=O)[C@H](C)C[C@H](O)[C@@]12C`: in the data set with HT-22 [1], the Activity result was “Non-Toxic”. On to `C[C@@H]1C[C@H](C)C2=C(CO)CCC[C@@H]2[C@@]1(C)CCc1ccoc1`, for which the Activity entry with HT-22 [1] is reported as “Non-Toxic”. Besides, the inhibition result with HT-22 [2] was “Active”.

`CC(=O)OC[C@@]1(O)CCC[C@@H]2[C@@](C)(CCc3ccoc3)[C@H](C)C[C@H](O)[C@]21C`: the Activity entry in the data set with HT-22 [1] is given as “Non-Toxic”.
